Assay results as given in US8933113B2 (Merck Sharp & Dohme Corp., priority 2011, dated 2015).

The compounds below were run against T1, full-length human Mineralocorticoid Receptor (MR) (Homo sapiens, UniProt P08235) (assay: human MR NH Pro assay (PathHunter Protein:Protein interaction assay), MR antagonist activity). Conditions: not given.
T1 construct: host or cells: PathHunter CHO-K1 cells
T1 sequence (P08235 1-984): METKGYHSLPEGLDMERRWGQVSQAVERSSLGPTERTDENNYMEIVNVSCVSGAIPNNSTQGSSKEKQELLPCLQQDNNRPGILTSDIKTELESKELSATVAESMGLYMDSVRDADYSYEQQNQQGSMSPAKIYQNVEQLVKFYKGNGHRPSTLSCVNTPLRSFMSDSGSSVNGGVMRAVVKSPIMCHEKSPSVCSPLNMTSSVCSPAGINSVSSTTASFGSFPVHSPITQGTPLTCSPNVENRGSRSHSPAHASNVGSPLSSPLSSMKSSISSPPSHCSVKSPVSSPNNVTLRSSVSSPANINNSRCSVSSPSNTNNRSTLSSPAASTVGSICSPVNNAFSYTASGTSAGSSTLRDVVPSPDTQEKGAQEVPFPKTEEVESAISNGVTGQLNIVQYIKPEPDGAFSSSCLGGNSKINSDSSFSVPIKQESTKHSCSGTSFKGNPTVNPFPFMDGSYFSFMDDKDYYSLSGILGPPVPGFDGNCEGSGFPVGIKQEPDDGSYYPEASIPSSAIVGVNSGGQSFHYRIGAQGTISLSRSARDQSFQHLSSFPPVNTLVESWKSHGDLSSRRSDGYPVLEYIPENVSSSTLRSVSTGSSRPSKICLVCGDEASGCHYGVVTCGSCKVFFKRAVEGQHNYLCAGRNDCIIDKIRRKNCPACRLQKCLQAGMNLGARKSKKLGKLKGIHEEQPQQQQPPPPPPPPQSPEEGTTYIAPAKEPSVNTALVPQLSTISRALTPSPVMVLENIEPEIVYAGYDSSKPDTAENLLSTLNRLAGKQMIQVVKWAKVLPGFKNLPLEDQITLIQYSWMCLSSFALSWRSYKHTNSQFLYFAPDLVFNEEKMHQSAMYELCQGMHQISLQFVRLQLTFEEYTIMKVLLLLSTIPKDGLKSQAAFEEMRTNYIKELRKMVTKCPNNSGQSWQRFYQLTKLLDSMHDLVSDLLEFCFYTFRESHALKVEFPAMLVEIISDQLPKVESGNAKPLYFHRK
Assay type: cell-based
Excerpt: The activity of the compounds of the present invention regarding mineralocorticoid receptor antagonism can be evaluated using the following assay.
Assessment of MR Potency in HMR NH Pro Assay
The human MR NH Pro assay is a commercially available PathHunter™ Protein:Protein interaction assay (DiscoveRx; http://www.discoverx.com/nhrs/prod-nhrs.php) that measures the ability of compounds to antagonize full-length human Mineralocorticoid Receptor (MR) binding to a coactivator peptide.
6. Test compounds are titrated starting at 4.4 mM, 10-point titration in 1:3 dilution.
3. Add 5 μL 6× agonist (final aldosterone concentration should be about 0.3 nM to about 1.0 nM) to all wells (using the PlateMate Plus.)
• (ThermoFisher) (except those wells in columns 23 and 24) 4. Add 5 uL of assay media to all wells in column 23 and 24. 5. Incubate 6 hrs at 37° C., 5% CO2. 6. Add 15 uL 3× DiscoveRx detection reagent to each well. 7. Incubate 1 hour at room temperature (keep plates stored in the dark). 8. Read plates on Envision (PerkinElmer) luminesence plate reader and analyze using ADA.

CCC(C(=O)NCCCl)(c1ccc(Cl)cc1)n1ccc2c(NS(C)(=O)=O)cccc21 (single isomer, unassigned) [Compound 148, N-(2-chloroethyl)-2-(4-chlorophenyl)-2-(4-(methylsulfonamido)-1H-indol-1-yl)butanamide] gave an IC50 of 100 to 500 nM.

Same assay, conditions: PathHunter CHO-K1 cells overexpressing human MR; aldosterone about 0.3 nM; 6 hours at 37° C.; luminescence; read-out: Primary Assay IP rating (IP = inflection point for a given dose-response titration curve)

CCC(C=C(C)C#N)(c1ccc(Cl)cc1)n1ccc2c(NS(C)(=O)=O)cccc21 (mixture of isomers) [Compound 131, N-(1-(3-(4-chlorophenyl)-5-cyanohex-4-en-3-yl)-1H-indol-4-yl)methanesulfonamide] and CC[C@](C#N)(c1ccc(Cl)cc1)n1ccc2c(NS(C)(=O)=O)cccc21 [Compound 5a, (R)—N-{1-[1-(4-chlorophenyl)-1-cyanopropyl]-1H-indol-4-yl}methanesulfonamide] cannot be ordered by IC50: less than 100 nM for the first, less than 100 nM for the second.

First: CCC(/C=C/C#N)(c1ccc(Cl)cc1)n1ncc2c(N)cccc21 (stereo not shown) [Compound 133, (E)-4-(4-amino-1H-indazol-1-yl)-4-(4-chlorophenyl)hex-2-enenitrile]
Second: CCC(/C=C/C#N)(c1ccc(Cl)cc1)n1ncc2c(NS(C)(=O)=O)cccc21 (stereo not shown) [Compound 129, (E)-N-(1-(3-(4-chlorophenyl)-1-cyanopent-1-en-3-yl)-1H-indazol-4-yl)methanesulfonamide]
The IC50 of the first is higher: 100 to 500 nM for the first, less than 100 nM for the second. The second is the more potent here.

First: CCC(c1ccc(Cl)cc1)(c1nc(C(N)=O)no1)n1ncc2c(NS(C)(=O)=O)cccc21 (stereo not shown) [Compound 157, 5-(1-(4-chlorophenyl)-1-(4-(methylsulfonamido)-1H-indazol-1-yl)propyl)-1,2,4-oxadiazole-3-carboxamide]
Second: CCC(CCC(=O)OC)(c1ccc(Cl)cc1)n1ncc2c(NS(C)(=O)=O)cccc21 (stereo not shown) [Compound 168, methyl 4-(4-chlorophenyl)-4-(4-(methylsulfonamido)-1H-indazol-1-yl)hexanoate]
The IC50 of the first is higher: 100 to 500 nM for the first, less than 100 nM for the second.

CS(=O)(=O)Nc1cccc2c1ccn2C1(c2ccc(Cl)cc2)CCNC1=O (stereo not shown) [Compound 84, N-{1-[3-(4-chlorophenyl)-2-oxopyrrolidin-3-yl]-1H-indol-4-yl}methanesulfonamide] and CCC(CN)(c1ccc(Cl)cc1)n1ccc2c(NS(C)(=O)=O)cccc21 (stereo not shown) [Compound 177, N-(1-(1-amino-2-(4-chlorophenyl)butan-2-yl)-1H-indol-4-yl)methanesulfonamide] fall in the same range of IC50: 100 to 500 nM for the first, 100 to 500 nM for the second.

First: CCC(C(C)=O)(c1ccc(Cl)cc1)n1ccc2c(NS(C)(=O)=O)cc(F)cc21 (stereo not shown) [Compound 98, N-(1-(3-(4-chlorophenyl)-2-oxopentan-3-yl)-6-fluoro-1H-indol-4-yl)methanesulfonamide]
Second: CCC(CO)(c1ccc(Cl)cc1)n1ccc2c(NS(C)(=O)=O)cc(F)cc21 (stereo not shown) [Compound 85, N-(1-(2-(4-chlorophenyl)-1-hydroxybutan-2-yl)-6-fluoro-1H-indol-4-yl)methanesulfonamide]
The IC50 of the first is lower: less than 100 nM for the first, 100 to 500 nM for the second.

CCC(c1ccc(Cl)cc1)(C(C)O)n1ncc2c(NS(=O)(=O)NC)cccc21 (stereo not shown) [Compound 118] and CCC(c1ccc(C(F)(F)F)cc1)(C(C)O)n1ncc2c(NS(C)(=O)=O)cccc21 (single isomer, unassigned) [Compound 116, N-(1-(2-hydroxy-3-(4-(trifluoromethyl)phenyl)pentan-3-yl)-1H-indazol-4-yl)methanesulfonamide] cannot be ordered by IC50: less than 100 nM for the first, less than 100 nM for the second.

Compared with CCC(C(=O)OC(C)(C)C)(c1ccc(Cl)cc1)n1ccc2c(NS(C)(=O)=O)cccc21 (stereo not shown) [Compound 26, tert-Butyl 2-(4-chlorophenyl)-2-{4-[(methylsulfonyl)amino]-1H-indol-1-yl}butanoate], CCC(c1ccc(Cl)cc1)(C(C)O)n1ccc2c(NS(C)(=O)=O)cccc21 (single isomer, unassigned) [Compound 109, N-(1-(3-(4-chlorophenyl)-2-hydroxypentan-3-yl)-1H-indol-4-yl)methanesulfonamide] is lower in IC50: 100 to 500 nM for the first, less than 100 nM for the second.

CCC(CC#N)(c1ccc(C(F)(F)F)cc1)n1ccc2c(NS(C)(=O)=O)cccc21 (stereo not shown) [Compound 126, N-(1-(1-cyano-2-(4-(trifluoromethyl)phenyl)butan-2-yl)-1H-indol-4-yl)methanesulfonamide] and CCC(CCC#N)(c1ccc(OC)cc1)n1ccc2c(NS(C)(=O)=O)cccc21 (stereo not shown) [Compound 139, N-(1-(1-cyano-3-(4-methoxyphenyl)pentan-3-yl)-1H-indol-4-yl)methanesulfonamide] cannot be ordered by IC50: less than 100 nM for the first, less than 100 nM for the second.

CCC(CCOS(C)(=O)=O)(c1ccc(Cl)cc1)n1ccc2c(NS(C)(=O)=O)cccc21 (stereo not shown) [Compound 164, 3-(4-Chlorophenyl)-3-(4-(methylsulfonamido)-1H-indol-1-yl)pentyl methanesulfonate] and CCC(CCC(=O)OC)(c1ccc(Cl)cc1)n1ccc2c(NS(C)(=O)=O)cccc21 (stereo not shown) [Compound 167, Methyl 4-(4-chlorophenyl)-4-(4-(methylsulfonamido)-1H-indol-1-yl)hexanoate] cannot be ordered by IC50: less than 100 nM for the first, less than 100 nM for the second.

First: CCC(c1ccc(Cl)cc1)(c1nnc(-c2cc(F)cc(F)c2)o1)n1ccc2c(NS(C)(=O)=O)cccc21 (stereo not shown) [Compound 75, N-(1-{1-(4-chlorophenyl)-1-[5-(3,5-difluorophenyl)-1,3,4-oxadiazol-2-yl]propyl}-1H-indol-4-yl)methanesulfonamide]
Second: CCC(c1ccc(Cl)cc1)(c1nnc(-c2ccc(C(F)(F)F)cc2)o1)n1ccc2c(NS(C)(=O)=O)cccc21 (stereo not shown) [Compound 73, N-{1-[1-(4-chlorophenyl)-1-{5-[4-(trifluoromethyl)phenyl]-1,3,4-oxadiazol-2-yl}propyl]-1H-indol-4-yl}methanesulfonamide]
The IC50 of the first is higher: 500 to 5000 nM for the first, 100 to 500 nM for the second.

COC(=O)C(c1ccc(Cl)cc1)n1ccc2c([N+](=O)[O-])cccc21 (stereo not shown) [Compound 1, methyl (4-chlorophenyl)(4-nitro-1H-indol-1-yl)acetate] and COC(=O)C(c1ccc(OC)cc1)n1ccc2c([N+](=O)[O-])cccc21 (stereo not shown) [Compound 5, methyl (4-methoxyphenyl)(4-nitro-1H-indol-1-yl)acetate] fall in the same range of IC50: 500 to 5000 nM for the first, 500 to 5000 nM for the second.

COC(=O)C(c1ccc(F)cc1Cl)n1ccc2c([N+](=O)[O-])cccc21 (stereo not shown) [Compound 2, methyl (2-chloro-4-fluorophenyl)(4-nitro-1H-indol-1-yl)acetate] and COC(=O)C(c1ccc(Cl)cc1Cl)n1ccc2c([N+](=O)[O-])cccc21 (stereo not shown) [Compound 3, methyl (2,4-dichlorophenyl)(4-nitro-1H-indol-1-yl)acetate] fall in the same range of IC50: 100 to 500 nM for the first, 100 to 500 nM for the second.

COC(=O)C(c1ccc(F)cc1Cl)n1ccc2cccc(F)c21 (stereo not shown) [Compound 15, methyl (2-chloro-4-fluorophenyl)(7-fluoro-1H-indol-1-yl)acetate] and COC(=O)C(c1ccc(F)cc1Cl)n1ccc2cccc(OCc3ccccc3)c21 (stereo not shown) [Compound 16, methyl [7-(benzyloxy)-1H-indol-1-yl](2-chloro-4-fluorophenyl)acetate] fall in the same range of IC50: 500 to 5000 nM for the first, 500 to 5000 nM for the second.

First: CS(=O)(=O)Nc1cccc2c1ccn2C(CC#N)(c1ccc(Cl)cc1)c1nnc(-c2ccccc2)o1 (stereo not shown) [Compound 76, N-{1-[1-(4-chlorophenyl)-2-cyano-1-(5-phenyl-1,3,4-oxadiazol-2-yl)ethyl]-1H-indol-4-yl}methanesulfonamide]
Second: CCC(COC)(c1ccc(Cl)cc1)n1ccc2c(NS(C)(=O)=O)cccc21 (single isomer, unassigned) [Compound 96, N-(1-(2-(4-chlorophenyl)-1-methoxybutan-2-yl)-1H-indol-4-yl)methanesulfonamide]
The IC50 of the first is higher: 100 to 500 nM for the first, less than 100 nM for the second.

Compared with CCC(c1ccc(C(F)(F)F)cc1)(C(C)O)n1ncc2c(NS(C)(=O)=O)cccc21 (single isomer, unassigned) [Compound 115, N-(1-(2-hydroxy-3-(4-(trifluoromethyl)phenyl)pentan-3-yl)-1H-indazol-4-yl)methanesulfonamide], CCC(CO)(c1ccc(C(F)(F)F)cc1)n1ncc2c(NS(C)(=O)=O)cccc21 (stereo not shown) [Compound 89, N-(1-(1-hydroxy-2-(4-(trifluoromethyl)phenyl)butan-2-yl)-1H-indazol-4-yl)methanesulfonamide] is higher in IC50: less than 100 nM for the first, 100 to 500 nM for the second. The first is the more potent here.
